Data: US10023592B2, “Bromodomain inhibitors” (Celgene Quanticel Research, Inc., priority 2013, dated 2018)

Key:
[1] = molecular target: BRD4(BD1) (Homo sapiens (Human), UniProt O60885); assay: In vitro enzyme inhibition assay (BRD4 AlphaScreen); format: binding
In short: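 AlphaScreen proximity readout, using streptavidin donor and Ni-chelate acceptor beads at 5 μg/mL final, monitors biotin-H4 tetraacetylated peptide interaction with purified His-tagged BRD4.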

[2] = tested on: Raji, human Burkitts lymphoma cells; assay: Cell-MTS proliferation assay, Raji; format: cell-based; details: Homo sapiens, 168 hr
Method: (§1) The Cell-MTS assay is a 7-day plate-based colorimetric assay which quantifies the amount of newly generated NADH in the presence or absence of test compound. The NADH level is used for the quantification of cancer cell proliferation.
(§2) Established cancer cell lines with a variety of driving mutations were obtained from American Type Culture Collection (ATCC) and routinely passaged according to ATCC protocols. For routine assay, these cells were seeded at densities which enabled ˜90% confluence after 7 days of culture. Raji, human Burkitts lymphoma cells, (cMYC) were seeded at 15,000 cells per 96-well. HL-60, human proleukemia cells, (NRAS, p16, p53, c-Myc amplified) were seeded at 5,000 cells per 96-well. NCI-H460, human non-small cell lung cancer cells, (KRAS, PIK3CA, STLK11, p16) were seeded at 3,000 cells per 96-well. 24 hr after plating, cells received an 11-point dilution of test compound with final concentration ranges from 100 μM to 2.0 nM. […] At the end of this incubation period, 80 μL of media is removed and 20 μL of CellTiter 96® AQueous Non-Radioactive Cell Proliferation Assay soln (Promega) was added. The cells were incubated until the OD490 was >0.6. IC50 values were calculated using the IDBS XLfit software package and include background subtracted OD490 values and normalization to DMSO controls. Cellular proliferation IC50 values were uploaded and archived using the Chem Biography Platform.

[3] = tested on: NCI-H460, human non-small cell lung cancer cells; assay: Cell-MTS proliferation assay, NCI-H460; format: cell-based; details: Homo sapiens, 168 hr
Method: as §1, §2

[4] = tested on: HL-60, human proleukemia cells; assay: Cell-MTS proliferation assay, HL-60; format: cell-based; details: Homo sapiens, 168 hr
Method: as §1, §2

[5] = in vitro enzyme inhibition assay
[6] = NCI-H460, Cell-MTS proliferation
[7] = Cell-MTS proliferation, Raji cells
[8] = Cell-MTS proliferation, HL-60 cells
[9] = Cell-MTS proliferation, NCI-H460 cells
[10] = Raji, Cell-MTS, class symbols A/B/C
[11] = HL-60, Cell-MTS, class symbols A/B/C
[12] = NCI-H460, Cell-MTS, class symbols A/B/C

SMILES	IC50 [1, 5]	IC50 ([2]; Raji, Cell-MTS proliferation)	IC50 [3, 6]	IC50 ([4]; HL-60, Cell-MTS proliferation)	also measured
C#Cc1cc(-c2cc(NS(C)(=O)=O)ccc2Oc2ccc(F)cc2F)cn(C)c1=O [Example 286, N-[4-(2,4-difluorophenoxy)-3-(5-ethynyl-1-methyl-6-oxopyridin-3-yl)phenyl]methanesulfonamide]	< 500 nM	500 to 5000 nM	> 5000 nM		
Cc1cc(-c2cc(CS(C)(=O)=O)ccc2OCC(F)(F)F)cn(C)c1=O [Example 427, 1,3-dimethyl-5-[5-(methylsulfonylmethyl)-2-(2,2,2-trifluoroethoxy)phenyl]pyridin-2-one]	< 500 nM				IC50 [2, 7]: < 500 nM; IC50 [4, 8]: < 500 nM; IC50 [3, 9]: > 5000 nM
Cn1cc(-c2cc(S(C)(=O)=O)ccc2N[C@H]2CC[C@H](O)CC2)c2ccccc2c1=O [Example 192, 4-[2-[(trans-4-hydroxycyclohexyl)amino]-5-methylsulfonylphenyl]-2-methylisoquinolin-1-one]	< 500 nM	< 500 nM	> 5000 nM	< 500 nM	
CC#CCOc1ccc(S(=O)(=O)CC)cc1-c1cn(C)c(=O)c2ccccc12 [Example 185, 4-(2-but-2-ynoxy-5-ethylsulfonylphenyl)-2-methylisoquinolin-1-one]	< 500 nM	< 500 nM	> 5000 nM	< 500 nM	
COc1ccc(S(=O)(=O)CCO)cc1-c1cn(C)c(=O)c2ccc(-c3cnn(C)c3)cc12 [Example 208, 4-[5-(2-hydroxyethylsulfonyl)-2-methoxyphenyl]-2-methyl-6-(1-methylpyrazol-4-yl)isoquinolin-1-one]	< 500 nM	500 to 5000 nM	> 5000 nM	< 500 nM	
Cn1cc(-c2nc(NS(C)(=O)=O)ncc2Oc2ccc(F)cc2F)c2ccoc2c1=O [Example 262, N-[5-(2,4-difluorophenoxy)-4-(6-methyl-7-oxofuro[2,3-c]pyridin-4-yl)pyrimidin-2-yl]methanesulfonamide]	< 500 nM	< 500 nM	> 5000 nM	< 500 nM	
CCS(=O)(=O)Nc1cc(Oc2ccc(F)cc2F)cc(-c2cc(C)c(=O)n(C)c2)c1 [Example 342, N-[3-(2,4-difluorophenoxy)-5-(1,5-dimethyl-6-oxopyridin-3-yl)phenyl]ethanesulfonamide]	< 500 nM	< 500 nM	500 to 5000 nM	< 500 nM	
Cn1cc(-c2cn(CS(C)(=O)=O)c(=O)cc2OCC2CC2)ccc1=O [Example 381, 4-(cyclopropylmethoxy)-5-(1-methyl-6-oxopyridin-3-yl)-1-(methylsulfonylmethyl)pyridin-2-one]	< 500 nM				IC50 [2, 7]: > 5000 nM; IC50 [4, 8]: 500 to 5000 nM; IC50 [3, 9]: > 5000 nM
CCS(=O)(=O)Nc1cccc(-c2cn(C)c(=O)c3ccc(-c4ccccn4)cc23)c1 [Example 87, N-[3-(2-methyl-1-oxo-6-pyridin-2-ylisoquinolin-4-yl)phenyl]ethanesulfonamide]					IC50 ([1]; class symbols A/B/C): 500 to 5000 nM; IC50 [2, 10]: 500 to 5000 nM; IC50 [4, 11]: < 500 nM; IC50 [3, 12]: > 5000 nM
CCN(c1ncc(OCC2CC2)c(-c2cc(C)c(=O)n(C)c2)n1)S(C)(=O)=O [Example 162, N-[5-(cyclopropylmethoxy)-4-(1,5-dimethyl-6-oxopyridin-3-yl)pyrimidin-2-yl]-N-ethylmethanesulfonamide]	< 500 nM	< 500 nM	> 5000 nM	< 500 nM	
Cc1cc(=O)n(C)cc1-c1cc(S(C)(=O)=O)ccc1OCC1CC1 [Example 477, 5-[2-(cyclopropylmethoxy)-5-methylsulfonylphenyl]-1,4-dimethylpyridin-2-one]	< 500 nM				IC50 [2, 7]: 500 to 5000 nM; IC50 [4, 8]: < 500 nM; IC50 [3, 9]: > 5000 nM
Cn1cc(-c2cc(S(C)(=O)=O)ccc2OCC2CC2)c2cc(C(F)(F)F)ccc2c1=O [Example 197]		500 to 5000 nM	> 5000 nM		
CCCOc1ccc(S(C)(=O)=O)cc1-c1cn(C)c(=O)c2cnc(-c3cnn(C)c3)nc12 [Example 228]		500 to 5000 nM	> 5000 nM	< 500 nM	
CCS(=O)(=O)Nc1ccc(Oc2ccc(F)cc2F)c(-c2cc(O)c(=O)n(C)c2)c1 [Example 451, N-[4-(2,4-difluorophenoxy)-3-(5-hydroxy-1-methyl-6-oxopyridin-3-yl)phenyl]ethanesulfonamide]	< 500 nM				IC50 [4, 8]: < 500 nM; IC50 [3, 9]: > 5000 nM
Cn1cc(-c2nc(S(C)(=O)=O)ccc2OCC2CC2)c2cc(F)ccc2c1=O [Example 202, 4-[3-(cyclopropylmethoxy)-6-methylsulfonylpyridin-2-yl]-6-fluoro-2-methylisoquinolin-1-one]	< 500 nM	< 500 nM	> 5000 nM		
COc1cc(-c2nc(NS(C)(=O)=O)ncc2Oc2ccc(F)cc2F)cn(C)c1=O [Example 167, N-[5-(2,4-difluorophenoxy)-4-(5-methoxy-1-methyl-6-oxopyridin-3-yl)pyrimidin-2-yl]methanesulfonamide]	< 500 nM	500 to 5000 nM	> 5000 nM		
Cc1cc(-c2cn(CS(C)(=O)=O)c(=O)cc2Oc2ccc(F)cc2F)cn(CC2CC2)c1=O [Example 250]		500 to 5000 nM	> 5000 nM	< 500 nM	
CCS(=O)(=O)Nc1ncc(Oc2ccc(F)cc2F)c(-c2cc(OC)c(=O)n(C)c2)n1 [Example 168, N-[5-(2,4-difluorophenoxy)-4-(5-methoxy-1-methyl-6-oxopyridin-3-yl)pyrimidin-2-yl]ethanesulfonamide]		< 500 nM	> 5000 nM	< 500 nM	
Cc1cc(-c2cc(OS(N)(=O)=O)ccc2OCC2CC2)cn(C)c1=O [Example 215, [4-(cyclopropylmethoxy)-3-(1,5-dimethyl-6-oxopyridin-3-yl)phenyl]sulfamate]		< 500 nM	> 5000 nM	< 500 nM	
COc1cc(-c2nc(CS(C)(=O)=O)ncc2Oc2ccc(F)cc2F)cn(C)c1=O [Example 146, 5-[5-(2,4-difluorophenoxy)-2-(methylsulfonylmethyl)pyrimidin-4-yl]-3-methoxy-1-methylpyridin-2-one]	< 500 nM	500 to 5000 nM	> 5000 nM		
Cn1cc(-c2nc(NS(C)(=O)=O)ncc2Oc2ccc(F)cc2F)c2ccccc2c1=O [Example 165, N-[5-(2,4-difluorophenoxy)-4-(2-methyl-1-oxoisoquinolin-4-yl)pyrimidin-2-yl]methanesulfonamide]	< 500 nM	500 to 5000 nM	> 5000 nM		
CCS(=O)(=O)c1ccc(OCC2CC2)c(-c2cn(C)c(=O)c3c2OCC(=O)N3)c1 [Example 365, 8-[2-(cyclopropylmethoxy)-5-ethylsulfonylphenyl]-6-methyl-4H-pyrido[4,3-b][1,4]oxazine-3,5-dione]		< 500 nM	> 5000 nM	< 500 nM	
Cc1cc(-c2cc(S(N)(=O)=O)ccc2NCC2CC2)cn(C)c1=O [Example 452, 4-(cyclopropylmethylamino)-3-(1,5-dimethyl-6-oxopyridin-3-yl) benzenesulfonamide]	500 to 5000 nM				IC50 [4, 8]: 500 to 5000 nM; IC50 [3, 9]: > 5000 nM
Cc1cc(-c2nc(CS(C)(=O)=O)ncc2Oc2ccc(F)cc2F)cn(C)c1=O [Example 147, 5-[5-(2,4-difluorophenoxy)-2-(methylsulfonylmethyl)pyrimidin-4-yl]-1,3-dimethylpyridin-2-one]	< 500 nM	500 to 5000 nM	> 5000 nM		
Cc1c(-c2cc(NS(C)(=O)=O)ccc2Oc2ccc(F)cc2F)cn(C)c(=O)c1C [Example 103, N-[4-(2,4-difluorophenoxy)-3-(1,4,5-trimethyl-6-oxopyridin-3-yl)phenyl]methanesulfonamide]					IC50 [2, 10]: 500 to 5000 nM; IC50 [4, 11]: < 500 nM; IC50 [3, 12]: > 5000 nM
CCS(=O)(=O)c1ccc(NCC2CC2)c(-c2cc(Cl)c(=O)n(C)c2)c1 [Example 275]		< 500 nM	> 5000 nM	< 500 nM	
Cn1cc(-c2cccc(NS(C)(=O)=O)c2)c2cc(F)ccc2c1=O [Example 47, N-[3-(6-fluoro-2-methyl-1-oxoisoquinolin-4-yl)phenyl]methanesulfonamide]					IC50 ([1]; class symbols A/B/C): < 500 nM; IC50 [2, 10]: < 500 nM; IC50 [4, 11]: < 500 nM
Cn1cc(-c2cc(OS(N)(=O)=O)ccc2OCC2CC2)c2ccccc2c1=O [Example 214, [4-(cyclopropylmethoxy)-3-(2-methyl-1-oxoisoquinolin-4-yl)phenyl]sulfamate]		< 500 nM	> 5000 nM	< 500 nM	
